Literature values, collected in patent US7601757B2, “Lipid system and methods of use” (Abbott Laboratories, priority 2003, dated 2009).

Experiments:
[1] = tested on: obese individuals with markers of insulin resistance; settings: diets rich in alpha-linolenic acid as margarine and muffins made with flaxseed oil
[2] = tested on: genetically insulin-resistant diabetic mice (KK-Ay); settings: 21 days after daily administration by gavage

CC/C=C\C/C=C\C/C=C\CCCCCCCC(=O)O [alpha-linolenic acid]
Insulin sensitivity [1]: decreased
Blood glucose response to insulin [2]: significant improvement
